According to patent US11725002B2, “Detection reagents and kit for identifying oxidized state and glycated state of low-density lipoproteins” (FUSO PHARMACEUTICAL INDUSTRIES, LTD., priority 2017, dated 2023):

Experiments:
[1] = system: plaques of thoracic aorta; test: Fluorescence mapping of lipid oxide in aorta of arteriosclerosis model mouse; type: in vivo, Apo-E knockout mouse; conditions: high fat diet 3 weeks, 500 μM/kg intraperitoneal, 15 minutes after administration, 470 nm/530 nm
Method: A 6-week-old male Apo-E knockout mouse (Apo−/−) was fed with a high fat diet, and 3 weeks later, NBD-Pen was administered at 500 μM/kg by intraperitoneal injection.
Fifteen minutes after NBD-Pen administration, the mouse was subjected to three types of mixed anesthesia and sacrificed, and the thoracic aorta was immediately removed. […] An oil red stained image of plaques of the same aortic sample was taken with a digital camera (FIG. 7b).

lipid radicals in LDL = test: Fluorescence detection of lipid radicals in LDL with NBD-Pen
Method: To a solution of 20 μg protein/ml of LDL and 10 μM of NBD-Pen in phosphate buffered saline (PBS) containing 0.5% of MeCN were added 0-3 μM of CuSO4, FeSO4 or Hemin, to generate lipid radicals.
Specifically, to a solution of 20 μg protein/ml of LDL and 10 μM of NBD-Pen in phosphate buffered saline (PBS; pH 7.4) containing 0.5% of MeCN were added 0-3 μM of Hemin, to generate lipid radicals. After incubation for 60 minutes at 37° C., these reacted solutions were investigated by the respective methods.
For fluorescence detection using NBD-Pen according to the present invention, the fluorescence intensities obtained in Example 1 were expressed as ratios based on the results without addition of Hemin.

[2] = Lipid peroxide (LOOH) detection in LDL with fluorescent probe DPPP; conditions: concentration range used in Example 2
Method: The absorption band around 234 nm of conjugated dienes formed during lipid oxidation was tracked by absorbance spectrophotometry. In addition, a measurement was performed by use of diphenyl-1-pyrenylphosphate (DPPP), which is a lipid peroxide (LOOH) detection fluorescent probe.

Row | Molecule | match of NBD-Pen fluorescence areas with oil-red stained plaques [1] | fluorescence intensities (λex: 470 nm, λem: 530 nm) (lipid radicals in LDL; 20 μg protein/ml LDL, 10 μM NBD-Pen, 0-3 μM CuSO4, FeSO4 or Hemin, 60 minutes at 37° C.) | sensitivity of fluorescence detection (lipid radicals in LDL; Hemin addition, compared with Cu2+ and Fe2+) | detection of lipid peroxides [2]
1 | 2,2,6-trimethyl-4-(4-nitrobenzo[1,2,5]oxadiazol-7-ylamino)-6-pentylpiperadine-1-oxyl [NBD-Pen] | completely matched | increased in a concentration-dependent manner | high sensitivity of fluorescence detection | 
2 | O=P(Oc1ccccc1)(Oc1ccccc1)Oc1ccc2ccc3cccc4ccc1c2c34 [DPPP, diphenyl-1-pyrenylphosphate] |  |  |  | neither method could detect lipid peroxides
